Data set [1] is described as follows: In vitro reactions with bionucleophiles. Conditions: with or without enzymatic conditions (S9 rat liver incubations). Here is the method: To a solution of compound 13d in acetonitrile (1.00 eq., 10.1 mg in 400 µL, 5.04 × 10^−2 M) reduced glutathione (4.00 eq. 25.2 mg, 82.00 µmol) dissolved in 400 µL of ABIC buffer 50 mM pH 7.4 was added. The reaction mixture was incubated for 24 h at 37 °C and monitored by LC-ESI-HRMS/MS.
To a solution of compound 13k in acetonitrile (1.00 eq., 4.3 mg in 200 µL, 3.92 × 10^−2 M) reduced glutathione (4.00 eq. 9.64 mg, 31.36 µmol) dissolved in 200 µL of ABIC buffer 50 mM pH 7.4 was added. The reaction mixture was incubated for 24 h at 37 °C and monitored by LC-ESI-HRMS/MS.
SLMP53-1_M5 (1.00 eq., 2.1 mg, dissolved in 150 µL of ACN) was added to a L-lysine (2 eq.) solution in 50 mM ABIC buffer pH 7.4. Following incubation for 24 h at 37 °C a solution of cyanoborohydride (2 eq) was added. The mixture was analyzed by LC-ESI(+)-HRMS/MS.

The next data set relates to HCT116 p53+/+ cells. Description: Antiproliferative activity, sulforhodamine B (SRB) assay. It counts as cell-based, human. Here is the method: (§1) Tumor cells were cultured in RPMI-1640 with UltraGlutamine (Lonza, VWR), supplemented with 10% fetal bovine serum (FBS; Gibco, Alfagene) and maintained in a humidified incubator at 37 °C with 5% CO2. Cell lines were seeded in 96-well plates at the cells/well density of 5.0 × 10^3.

Another data set relates to HCT116 p53−/− cells. The description is as above. Type of data set: cell-based, human. Particulars: 48 h treatment, mean ± SEM of 3–5 independent experiments, read-out: HCT116 p53−/− GI50. Here is the method: as §1
Data set [2] in a line: Human liver microsomes incubations: half-life and intrinsic clearance. Type of data set: in vitro ADME. Here is the method:
For the generation of Phase I metabolites: tested compounds, at a 10 μM concentration (1 μL of 5 mM DMSO stock solution), were incubated with HLM (1 mg protein/mL), Vivid® regenerating system (5 μL) and NADPH (1mM) in ABIC 50 mM buffer pH 7.4, for a total incubation volume of 500 μL. Incubations were run in duplicate, at 37 °C. Aliquots were collected at 0, 5, 10, 20, 30, 40, 50, 60, 75, 90, 120, 180 min and reactions were stopped by adding and ice-cold solution of reserpine (2.5 μM) in acetonitrile. Additional aliquots were taken at 0 and 120 min and subsequently treated with L-lysine (100 µM) and sodium cyanoborohydride (10 µM) or glutathione (100 µM). Following centrifugation (10,000 rpm, 15 min, RT), the clear supernatants were collected and analyzed LC-ESI-HRMS/MS. Control incubations were conducted in the same conditions: (1) using DMSO as negative control, in absence of the test drug; (2) using heat-denatured HLM (90 °C, 15 min); (3) using nevirapine, as a positive control, instead of the tested compound; and (4) in absence of NADPH co-factor.
The in vitro depletion half-lives of tested compounds t1/2 were calculated using Equation (1), assuming that testing compounds follow a first-order kinetic trend. The “slope” was determined from linear fitting of the natural logarithm of the concentration of drug remaining plotted against time:(1) t1/2=ln2/slope
The intrinsic clearance in HLM (CLint, HLM) was calculated using Equation (2):(2) CLint HLM =ln2/ t1/2 x mL incubation/mg microsomes x 45 mg microsomes/g liver x 26 g liver/Kg b.w.
A general note: Microsomes from liver hold many membrane-bound enzymes, among them those of drug oxidation.

Molecules are shown by their SMILES. Like-named read-outs stand apart in the source and are kept apart here.

Turning to `CCCn1c(Br)c(C[C@H]2CO[C@]3(c4ccccc4)c4ccccc4C(=O)N23)c2ccccc21` [Compound 13d, (3S, 9bR)-3-((2-bromo-1-propyl-1H-indol-3-yl)methyl)-9b-phenyl-2,3-dihydrooxazolo[2,3-a]isoindol-5(9bH)-one], in data set [1], the “products of addition of GSH with concomitant loss of bromine” value was “no products compatible with the addition of GSH, and the concomitant loss of bromine, were detected”. Besides, the “more active than SLMP53-2 (7)” value in the data set with HCT116 p53+/+ cells (HCT116 p53+/+) was found to be 2 fold. Moreover, the “S.I. (selectivity index)” value with HCT116 p53+/+ cells (HCT116 p53−/− versus HCT116 p53+/+) is given as 1.9. The GI50 in the data set with HCT116 p53+/+ cells (Homo sapiens, HCT-116, 48 h treatment, mean ± SEM of 3–5 independent experiments, read-out: HCT116 p53+/+ GI50) was 4 ± 0.5 µM; in the data set on HCT116 p53−/− cells, 7.45 ± 0.95 µM; in the data set on HCT116 p53−/− cells (Homo sapiens, HCT-116, 48 h), 7.5 µM. Moreover, the “Intrinsic Clearance” value in data set [2] (HLM, calculated from half-life (Equation 2)) is 5.5 mL/min/kg. In addition, the clearance classification entry in data set [2] (HLM, classification after ref 32) is “low clearance”. The same compound had a half-life at 10 μM in data set [2] (human, liver microsomes, pH 7.4, HLM 1 mg protein/mL, 10 μM, NADPH, 37 °C) of 92 min.

The term half-life denotes how long it takes for the measured level to halve.

The record behind these values is publication PMC9967700, “Metabolism-Guided Optimization of Tryptophanol-Derived Isoindolinone p53 Activators” (Pharmaceuticals, 2023).
